Data on 1 compound can be found in patent US6511989B2, “Acylaminoalkyl-substituted benzenesulfonamide derivatives, their preparation, their use and pharmaceutical preparations comprising them” (Aventis Pharma Deutschland GmbH, priority 2000, dated 2003).

The subject of assay [1] is chloroform-induced ventricular fibrillation in the mouse. Briefly: Chloroform-induced ventricular fibrillation in the mouse. The assay is classed as in vivo. As to conditions: 3 mg/kg i.p., 30 min before chloroform anesthesia; untreated control 100%. An excerpt: Chloroform-induced Ventricular Fibrillation in the Mouse (Action in the Case of Vagal Dysfunction)
Hypoactivity of the vagal nervous system leads to hyperactivity of the sympathetic nervous system. Damages to health that result from an inequilibrium of the autonomic nervous system when the dysfunction affects the heart include the weakening of the myocardial contractile force and fatal cardiac arrhythmias such as ventricular fibrillation. The action of the test compounds was investigated in the model of chloroform-induced ventricular fibrillation in the mouse (see J. W. Lawson, Antiarrhythmic activity of some isoquinoline derivatives determined by a rapid screening procedure in the mouse; J. Pharmacol. Exp. Ther. 160 (1968) 22).
The test compound was dissolved in a mixture of dimethyl sulfoxide (DMSO) and 10 percent sodium hydrogencarbonate solution and administered intraperitoneally (i.p.). The dose was 3 mg/kg. 30 min later, the mouse was anesthetized with chloroform in a beaker. As soon as respiratory arrest had occurred under deep anesthesia (toxic stage of anesthesia), the thorax of the animal was opened using a pair of scissors and the heartbeat was visually inspected. It can be determined here at a glance whether the heart is beating, fibrillating, or has stopped. […]

The next assay deals with hSUR1/hKir6.2 (Homo sapiens, UniProt Q09428+Q14654). Briefly: Action on hSUR1/hKir6.2-transfected CHO cells (membrane potential, DIBAC4 fluorescence, FLIPR). As to conditions: 10 μM; CHO cells activated with diaxozide. Format: cell-based. From the text: Action on hSUR1/hKir6.2-transfected CHO Cells (Hypoglycemic Action)
The target organ of these compounds is the […] of the pancreas where they block ATP-sensitive potassium channels and produce a release of the hypoglycemic hormone insulin by influencing the electrical potential of the cell membrane.
The extent of this depolarization of the cell membrane, which is caused by the compounds according to the invention, was investigated on CHO cells that were transfected with the cloned components of human pancreatic ATP-sensitive potassium channels, hSUR1, and hKir6.2, and activated by pretreatment with diaxozide, an opener of ATP-sensitive potassium channels. The potency of a compound with respect to the membrane potential of these transfected and activated CHO cells is a measure of the hypoglycemic potential of this compound.
On the day of measurement, the microtiter plates were washed three times with PBS (physiological buffer solution). In the last washing step, 90 μl remained in each well. The cells were then loaded with the fluorescent dye DIBAC4 (Molecular Probes, Portland, Oreg., USA) by addition of 90 μl of a 10-micromolar solution of DIBAC4 in PBS and of 90 μl of a 400 micromolar solution of diaxozide in PBS to each well. After an incubation time of 30 min at 37° C., the microtiter plates were then transferred to a fluorescent microtiter plate reader (FLIPR; Molecular Devices, Sunnyvale, Calif., USA). The cells were stimulated by means of an argon laser (Innova 90; Coherent, Santa Clara, Calif., USA) at a wavelength of 488 nm and the fluorescence emission was measured by means of a CCD camera. The measurement of the membrane potential began after 4 min by addition of 20 μl of a solution of the test compound or of the control solution to each well, the resulting fluorescence emission being measured every 20 seconds for a period of 20 min. The data shown are mean values of at least 4 experiments.

Sequence of hSUR1/hKir6.2 (Q09428 whole entry): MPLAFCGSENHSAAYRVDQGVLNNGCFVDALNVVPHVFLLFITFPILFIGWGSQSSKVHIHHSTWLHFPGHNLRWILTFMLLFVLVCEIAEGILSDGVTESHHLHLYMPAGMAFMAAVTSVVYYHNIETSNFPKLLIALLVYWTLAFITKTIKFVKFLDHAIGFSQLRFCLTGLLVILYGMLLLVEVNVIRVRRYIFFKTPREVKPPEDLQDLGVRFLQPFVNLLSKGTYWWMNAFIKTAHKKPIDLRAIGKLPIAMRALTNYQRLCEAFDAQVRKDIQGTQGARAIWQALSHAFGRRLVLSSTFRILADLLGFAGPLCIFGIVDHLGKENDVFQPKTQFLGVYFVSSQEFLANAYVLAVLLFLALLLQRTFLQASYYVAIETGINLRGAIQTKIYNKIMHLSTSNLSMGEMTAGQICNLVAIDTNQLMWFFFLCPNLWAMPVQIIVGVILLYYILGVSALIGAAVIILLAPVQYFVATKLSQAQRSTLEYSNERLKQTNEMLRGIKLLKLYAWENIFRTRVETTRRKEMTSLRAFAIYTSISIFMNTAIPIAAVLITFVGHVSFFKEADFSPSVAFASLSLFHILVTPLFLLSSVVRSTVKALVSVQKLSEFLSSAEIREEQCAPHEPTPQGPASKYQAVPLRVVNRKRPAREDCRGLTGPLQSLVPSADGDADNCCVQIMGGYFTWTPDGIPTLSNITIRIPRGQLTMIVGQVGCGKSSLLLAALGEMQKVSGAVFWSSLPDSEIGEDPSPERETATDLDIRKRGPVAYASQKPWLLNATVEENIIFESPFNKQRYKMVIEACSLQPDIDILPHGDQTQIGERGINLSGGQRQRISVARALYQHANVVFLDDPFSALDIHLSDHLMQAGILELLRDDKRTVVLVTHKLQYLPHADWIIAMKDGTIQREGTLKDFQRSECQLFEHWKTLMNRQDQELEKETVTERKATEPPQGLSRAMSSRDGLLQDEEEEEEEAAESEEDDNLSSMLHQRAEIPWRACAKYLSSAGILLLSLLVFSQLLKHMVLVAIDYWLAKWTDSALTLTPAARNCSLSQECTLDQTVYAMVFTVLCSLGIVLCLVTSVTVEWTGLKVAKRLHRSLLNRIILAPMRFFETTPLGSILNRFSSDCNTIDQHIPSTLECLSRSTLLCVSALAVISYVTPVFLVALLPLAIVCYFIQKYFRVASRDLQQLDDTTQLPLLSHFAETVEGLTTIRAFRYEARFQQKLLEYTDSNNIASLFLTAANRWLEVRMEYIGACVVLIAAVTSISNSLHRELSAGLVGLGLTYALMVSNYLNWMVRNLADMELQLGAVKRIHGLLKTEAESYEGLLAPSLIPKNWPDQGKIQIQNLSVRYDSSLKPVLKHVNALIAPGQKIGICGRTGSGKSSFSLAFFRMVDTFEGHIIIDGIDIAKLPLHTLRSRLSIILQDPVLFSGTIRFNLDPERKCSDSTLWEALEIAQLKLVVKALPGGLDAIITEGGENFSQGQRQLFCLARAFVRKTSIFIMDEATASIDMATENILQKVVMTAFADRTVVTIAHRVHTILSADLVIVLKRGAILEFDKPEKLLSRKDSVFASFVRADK
Sequence of hSUR1/hKir6.2 (Q14654 whole entry): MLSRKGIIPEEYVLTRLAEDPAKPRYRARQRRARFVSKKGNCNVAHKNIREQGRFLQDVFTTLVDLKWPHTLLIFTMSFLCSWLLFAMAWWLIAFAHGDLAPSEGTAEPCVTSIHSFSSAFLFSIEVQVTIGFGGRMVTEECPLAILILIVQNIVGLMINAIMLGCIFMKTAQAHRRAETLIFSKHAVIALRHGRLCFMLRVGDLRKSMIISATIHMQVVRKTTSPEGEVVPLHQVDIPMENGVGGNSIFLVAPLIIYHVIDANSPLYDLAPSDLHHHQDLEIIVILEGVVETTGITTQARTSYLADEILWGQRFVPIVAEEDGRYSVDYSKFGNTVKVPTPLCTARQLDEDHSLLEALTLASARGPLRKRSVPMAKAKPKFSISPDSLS

In the case of `COc1ccc(CCNC(=O)C2=CCCCC2)cc1S(=O)(=O)NC(=S)NC(C)C` [Example 20, 1-[5-(2-(1-Cyclohex-1-enecarboxamido)ethyl)-2-methoxyphenylsulfonyl]-3-isopropyl-thiourea], the “Fibrillation ratio (in %)” value in assay [1] was 70%. In addition, the “Blockade hSUR1/hKir6.2” value at hSUR1/hKir6.2 was 38.3%.
